Data set [1] has as its target recombinant human DPPI (Cathepsin C) (Homo sapiens (Human), UniProt P53634). Kind of data set: Inhibition of human DPPI (Cathepsin C). It counts as biochemical. To be noted: substrate Gly-Arg-AMC. The procedure, abridged:
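Fluorescence read after 30 min room-temperature turnover of 50 μM (final) substrate by recombinant human cathepsin C, pH 6.0 MES/NaCl/DTT/BSA buffer, quenched by Gly-Phe-DMK (1 μM final). Activity as percent of vehicle after background subtraction, used for IC50.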

Data set [2] addresses recombinant human Cathepsin K (Homo sapiens (Human), UniProt P43235). Kind of data set: Inhibition of human Cathepsin K. Type of data set: biochemical. To be noted: substrate Z-Gly-Pro-Arg-AMC. In outline: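 Fluorogenic Z-Gly-Pro-Arg-AMC cleavage, 60 min at room temperature, after a 10 min enzyme–compound preincubation (enzyme 2 ng/μL; compound 0.1 nM–100 μM; 1% DMSO). Buffer pH 5.5 with sodium acetate, EDTA and L-cysteine; procathepsin first activated 30 min at pH 3.5. E64 (1 μM) stop; IC50 derived from percent of vehicle signal minus background (Ex 360/Em 460 nm).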

Data set [3] in a line: Determination of metabolic stability with human liver microsomes. To be noted: human, pooled human liver microsomes, pH 7.6.
Method: Determination of Metabolic Stability with Human Liver Microsomes
The metabolic degradation of the test compound is assayed at 37° C. with pooled human liver microsomes. The final incubation volume of 100 μl per time point contains TRIS buffer pH 7.6 (0.1 M), magnesium chloride (5 mM), microsomal protein (1 mg/ml) and the test compound at a final concentration of 1 μM. Following a short preincubation period at 37° C., the reactions are initiated by addition of beta-nicotinamide adenine dinucleotide phosphate, reduced form (NADPH, 1 mM) and terminated by transferring an aliquot into acetonitrile after different time points. Additionally, the NADPH-independent degradation is monitored in incubations without NADPH, terminated at the last time point. The [%] remaining test compound after NADPH independent incubation is reflected by the parameter c (control) (metabolic stability). The quenched incubations are pelleted by centrifugation (10,000 g, 5 min). An aliquot of the supernatant is assayed by LC-MS/MS for the amount of parent compound.
The half-life (t½ INVITRO) is determined by the slope of the semilogarithmic plot of the concentration-time profile.

Where only a bound is given, the exact number is not on record here.

Chain of recombinant human Cathepsin K (P43235 115-329): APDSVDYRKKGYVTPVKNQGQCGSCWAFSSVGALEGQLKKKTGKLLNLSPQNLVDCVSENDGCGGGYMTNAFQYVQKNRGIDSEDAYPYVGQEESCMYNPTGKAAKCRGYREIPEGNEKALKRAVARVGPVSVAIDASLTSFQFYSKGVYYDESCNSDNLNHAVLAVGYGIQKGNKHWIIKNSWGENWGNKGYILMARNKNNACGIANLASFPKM
Chain of recombinant human DPPI (Cathepsin C) (P53634 231-394): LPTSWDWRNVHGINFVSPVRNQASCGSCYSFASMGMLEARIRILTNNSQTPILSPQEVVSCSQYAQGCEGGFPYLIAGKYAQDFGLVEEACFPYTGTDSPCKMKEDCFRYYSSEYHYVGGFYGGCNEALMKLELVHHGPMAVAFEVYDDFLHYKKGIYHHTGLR
Chain of recombinant human DPPI (Cathepsin C) (P53634 395-463): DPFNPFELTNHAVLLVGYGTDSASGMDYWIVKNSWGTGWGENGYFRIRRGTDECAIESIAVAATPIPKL
Chain of recombinant human DPPI (Cathepsin C) (P53634 25-134): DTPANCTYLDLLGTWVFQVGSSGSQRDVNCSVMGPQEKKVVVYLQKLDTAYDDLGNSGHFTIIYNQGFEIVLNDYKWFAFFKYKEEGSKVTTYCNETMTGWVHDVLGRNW

By IC50 is commonly meant the concentration that inhibits the measured activity by half. The half-life is the time in which the quantity being followed falls by half. A high value points to slow loss. With `CCOCc1cn(-c2ccc(C[C@@H](C#N)NC(=O)[C@H]3N[C@@H]4CC[C@H]3C4)c(F)c2)nn1` [Example 105], the IC50 in data set [1] was 0.025 µM; in data set [2], 5.2 µM. The compound further registered a half-life at 1 μM in data set [3] of more than 2.17 h.
The like results for `N#C[C@H](Cc1ccc(-n2cc(COc3ccccc3)nn2)cc1F)NC(=O)[C@H]1N[C@@H]2CC[C@H]1C2` [Example 47] were, in that order, 0.0072 µM, 3.4 µM and 1.4 h.
Turning to `Cn1cc(-c2ccc(C[C@@H](C#N)NC(=O)[C@H]3N[C@@H]4CC[C@H]3C4)c(F)c2)ccc1=O` [Example 254], the half-inhibitory concentration (IC50) is 0.002 µM in data set [1] and 4.5 µM in data set [2]. In data set [3], the half-life at 1 μM was more than 2.17 h.
For `CS(=O)(=O)c1cccc(-c2ccc(C[C@@H](C#N)NC(=O)[C@H]3N[C@@H]4CC[C@H]3C4)c(F)c2)c1` [Example 4, (1S,2S,4R)—N-[(1S)-1-cyano-2-[2-fluoro-4-(3-methylsulfonylphenyl)phenyl]ethyl]-3-azabicyclo[2.2.1]heptane-2-carboxamide] the same measures were 0.0014 µM, 2.6 µM and more than 2.17 h.
The like results for `N#CC(Cc1ccc(-c2cccc(C(N)=O)c2)cc1F)NC(=O)[C@H]1N[C@@H]2CC[C@H]1C2` (stereo partly drawn) [Example 53] were, in that order, 0.0079 µM, 4.1 µM and more than 2.17 h.
The like results for `N#C[C@H](Cc1ccc(C2=CCN3CCOCC3C2)cc1F)NC(=O)[C@H]1N[C@@H]2CC[C@H]1C2` (stereo partly drawn) [Example 281] were, in that order, 0.0033 µM, 1.9 µM and more than 2.17 h.
Regarding `N#Cc1ccc2[nH]c(=O)c3cc(CC(C#N)NC(=O)[C@H]4N[C@@H]5CC[C@H]4C5)ccc3c2c1` (stereo partly drawn) [Example 298], the IC50 is 0.0032 µM in data set [1] and 17.6 µM in data set [2]. Also, the half-life at 1 μM in data set [3] was determined as 1.75 h.
The like results for `N#C[C@H](Cc1ccc(-c2cnn(CC3CCCO3)c2)cc1F)NC(=O)[C@H]1N[C@@H]2CC[C@H]1C2` (stereo partly drawn) [Example 50] were, in that order, 0.0074 µM, 3.6 µM and more than 2.17 h.
The like results for `CN1C(=O)C(=O)c2ccc(-c3ccc(C[C@@H](C#N)NC(=O)[C@H]4N[C@@H]5CC[C@H]4C5)c(F)c3)cc21` [Example 10] were, in that order, 0.0015 µM, 2.7 µM and more than 2.17 h.
The like results for `CN1CCCN(c2ccc(C[C@@H](C#N)NC(=O)[C@H]3N[C@@H]4CC[C@H]3C4)c(F)c2)CC1` [Example 247] were, in that order, 0.0084 µM, 4.5 µM and more than 2.17 h.
For the compound `CN1C(=O)Cc2ccc(-c3cc(F)c(C[C@@H](C#N)NC(=O)[C@H]4N[C@@H]5CC[C@H]4C5)cc3F)cc21` [Example 31], the results for the half-inhibitory concentration (IC50) in data set [1] and in data set [2] were 0.0043 µM and 7.3 µM, respectively. In data set [3], this compound registered a half-life at 1 μM of 1.5 h.
The like results for `N#C[C@H](Cc1ccc(-c2cnn(C[C@H]3CCCO3)c2)cc1F)NC(=O)[C@H]1N[C@@H]2CC[C@H]1C2` [Example 260] were, in that order, 0.0035 µM, 3.9 µM and more than 2.17 h.
For the compound `N#C[C@H](Cc1ccc(-c2ccc3c(c2)NC(=O)C3)cc1F)NC(=O)[C@H]1N[C@@H]2CC[C@H]1C2` [Example 29], the results for the half-maximal inhibitory concentration (IC50) in data set [1] and in data set [2] were 0.0042 µM and 1.4 µM, respectively. In data set [3], this compound registered a half-life at 1 μM of more than 2.17 h.
For `N#C[C@H](Cc1ccc(-c2cc[nH]n2)cc1F)NC(=O)[C@H]1N[C@@H]2CC[C@H]1C2` [Example 114] the same measures were 0.0367 µM, 6.8 µM and more than 2.17 h.
Consider `CN1C(=O)Cc2ccc(-c3ccc(C[C@@H](C#N)NC(=O)[C@H]4N[C@@H]5CC[C@H]4C5)c(F)c3)cc21` [Example 2, (1S,2S,4R)—N-[(1S)-1-cyano-2-[2-fluoro-4-(1-methyl-2-oxo-indolin-6-yl)phenyl]ethyl]-3-azabicyclo[2.2.1]heptane-2-carboxamide], for which the IC50 is 0.002 µM in data set [1] and 2.8 µM in data set [2]. Further, the half-life at 1 μM in data set [3] was more than 2.08 h.
